Values of other authors, collected in US20250354118A1, “COMPOSITIONS AND METHODS FOR NK CELL DIFFERENTIATION” (Umoja Biopharma, Inc., priority 2022, published 2025).

Molecular target: PSMA-positive human prostate cancer cells (Homo sapiens, UniProt Q04609)
Settings: Kularatne et al., Mol Pharm. 2009

Chain of PSMA-positive human prostate cancer cells (Q04609 whole entry): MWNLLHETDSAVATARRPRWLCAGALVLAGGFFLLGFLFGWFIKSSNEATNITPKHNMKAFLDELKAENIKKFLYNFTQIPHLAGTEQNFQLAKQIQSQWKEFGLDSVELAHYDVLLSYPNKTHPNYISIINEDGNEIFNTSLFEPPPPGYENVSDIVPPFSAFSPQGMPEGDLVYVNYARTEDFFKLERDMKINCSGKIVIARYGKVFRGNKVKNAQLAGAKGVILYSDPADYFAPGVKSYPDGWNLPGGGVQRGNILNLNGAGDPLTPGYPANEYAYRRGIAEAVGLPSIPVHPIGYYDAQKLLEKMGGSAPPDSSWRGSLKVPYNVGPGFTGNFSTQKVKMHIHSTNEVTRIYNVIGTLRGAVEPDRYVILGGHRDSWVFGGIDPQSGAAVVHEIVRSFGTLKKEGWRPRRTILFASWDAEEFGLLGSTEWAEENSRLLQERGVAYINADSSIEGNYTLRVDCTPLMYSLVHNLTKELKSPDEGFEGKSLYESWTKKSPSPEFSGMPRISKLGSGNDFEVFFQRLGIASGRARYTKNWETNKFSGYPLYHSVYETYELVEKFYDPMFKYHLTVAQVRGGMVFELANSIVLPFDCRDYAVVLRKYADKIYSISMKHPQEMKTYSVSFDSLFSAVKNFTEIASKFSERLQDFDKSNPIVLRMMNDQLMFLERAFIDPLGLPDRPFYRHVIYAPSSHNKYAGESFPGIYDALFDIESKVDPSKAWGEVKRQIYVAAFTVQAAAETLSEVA

SMILES: O=C(O)CC[C@H](NC(=O)N[C@@H](CCC(=O)O)C(=O)O)C(=O)O [DUPA]
- Kd: 14 nM
